In patent publication EP4043435A1, “COMPOUND FOR DETECTING SENESCENT CELLS AND USE THEREOF” (Universitat Politècnica de València, priority 2019, dated 2021):

Experiments:
4T1 cells [1] = test: Confocal microscopy of fluorescence emission in control and Palbociclib-induced senescent cells; format: cell-based, mouse
Experimental: Mouse mammary carcinoma 4T1 cells were cultured in DMEM supplemented with 10 % FBS and incubated in 20 % O2 and 5 % CO2 at 37 °C. The cells were incubated with 5 µM of Palbociclib in DMEM for one week to induce the senescence process. Subsequently, the cells were seeded in a flat clear-bottom 96-well plate with a density of 6000 cells for senescent cells and 4000 in the control cells (without prior treatment with Palbociclib). After 24 hours, the cells were incubated with different concentrations of probe Cy7-Gal and its fluorophore (Cy7), with confocal microscopy images being acquired after 30 min of incubation. A more than 10-fold increase in fluorescence emission is observed between senescent cells treated with probe Cy7-Gal and untreated senescent cells (self-fluorescence signal).

4T1 cells [2] = test: Viability assay (CellTiter-GLO Luminescent Cell Viability Assay) in control and senescent cells; format: cell-based, mouse; settings: 4T1 control and senescent cells, different concentrations, 24 h of incubation
Experimental: Mouse mammary carcinoma 4T1 cells were cultured in DMEM supplemented with 10 % FBS and incubated in 20 % O2 and 5 % CO2 at 37 °C. To obtain cellular senescence, the cells were incubated with 5 µM of Palbociclib in DMEM for one week. Subsequently, the cells were seeded in a flat clear-bottom 96-well plate with a density of 6000 cells for senescent cells and 4000 in the control cells. After 24 h, the cells were treated with different concentrations of probe Cy7-Gal and its fluorophore (Cy7). Viability measurements were obtained after 24 h of incubation using CellTiter-GLO Luminescent Cell Viability Assay as a developer.

4T1 cell tumours = test: Ex vivo IVIS fluorescence of extracted tumours and organs; format: in vivo, female BALB/cByJ mice; settings: after sacrifice, different Palbociclib groups (FIG. 8d)
Experimental: The mice were kept in the Prince Phillip Research Centre (Centro de Investigación Príncipe Felipe (CIPF)) following the recommendations of the Federation of European Laboratory Animal Science Associations (FELASA). All the processes applied on the animals were approved by the Technical Research Committee for Animal Welfare (Comité Técnico de Investigación para el bienestar de los animals, CElyBA). 4T1 mammary tumours were generated using 4T1 cells: The cells were cultured in DMEM supplemented with 10 % FBS and penicillin-streptomycin. To generate the formation of mammary tumours, the cells were trypsinised and counted with a LUNA ™ automated cell counter and injected by subcutaneous route into the left mammary of 28- to 34-week-old female BALB/CBY mice at a concentration of […] in a volume of 100 µl. The volume of the tumour was measured every two days with a gauge and calculated as V = (a x b2) / 2, wherein a is the longest and b is the shortest of two perpendicular diameters. […] The mice were monitored for 15 minutes post-injection of the probe in the IVIS® equipment following the accumulation of fluorophore Cy7 in the bladder after the hydrolysis of probe Cy7-Gal in the presence of senescent cells. […] The measurement of fluorescence in organs and tumours for the different groups of mice was performed with the IVIS technique.

4T1 mammary tumours = test: In vivo detection of senescence through urine and bladder fluorescence (IVIS and fluorescence spectroscopy) in mice bearing mammary tumours; set-up: species or system female BALB/cByJ mice
Experimental: Urine fluorescence measurements were carried out by taking 5 µl of urine and diluting it in distilled water to 100 µl. The samples were obtained by exciting at 535 nm and collecting the absorption maximum at 566 nm.
The Palbociclib was administered through an oral probe daily for 7 days at different concentrations of 10 mg / kg, 50 mg / kg and 100 mg / kg dissolved in 50 mM sodium lactate at pH 5 in order to induce senescence. […] The mice were monitored for 15 minutes post-injection of the probe in the IVIS® equipment following the accumulation of fluorophore Cy7 in the bladder after the hydrolysis of probe Cy7-Gal in the presence of senescent cells.

SMILES: CC(=O)OC[C@H]1O[C@@H](Oc2ccc(/C=C/C3=[N+](CCCCS(=O)(=O)[O-])c4ccccc4C3(C)C)cc2/C=C/C2=[N+](CCCCS(=O)(=O)[O-])c3ccccc3C2(C)C)[C@H](OC(C)=O)[C@@H](OC(C)=O)[C@H]1OC(C)=O [Cy7-Gal]
- increase in fluorescence emission between senescent cells and control cells (4T1 cells [1]; both incubated in the presence of probe, compared with the more than 10-fold increase over untreated senescent cells, 30 min of incubation): slightly higher
- increase in fluorescence emission (4T1 cells [1]; senescent 4T1 cells (5 µM Palbociclib, one week) treated with probe vs untreated senescent cells (self-fluorescence signal), 30 min of incubation): more than 10 fold
- selectivity of the probe for detecting senescent cells (4T1 cells [1]; senescent vs control 4T1 cells): high selectivity
- toxicity (viability) (4T1 cells [2]): minimum toxicity
- fluorescence signal in tumours and most representative organs (IVIS) (4T1 cell tumours): a signal is only observed in senescent tumours, and no signal is observed in the different organs
- expulsion from the organism through urine (4T1 mammary tumours; female mice urinated after coming out from under anaesthesia, monitored 15 minutes post-injection): expelled from the organism
- fluorescence emission of the urine samples vs degree of cellular senescence (4T1 mammary tumours; mice with 4T1 tumours given Palbociclib 10, 50 or 100 mg/kg orally for 7 days, then probe 23.3 mg/ml in 100 µl, IVIS and fluorescence spectroscopy): correspondence between the fluorescence emission of the urine samples and the degree of cellular senescence
